Assay results taken from US11739111B2, “Manufacture of trans-[tetrachlorobis(1H-indazole)ruthenate (III)] and compositions thereof” (Bold Therapeutics, Inc., priority 2017, dated 2023).
Where “and” joins values, the source holds several entries; their conditions need not be identical. Equal values may be shown once.

How the values were obtained:
Format in all cases: physicochemical
[1] = Stability of the isolated cesium intermediate as dry powder; conditions: ambient conditions
Source text: Another aspect of the invention is the introduction of step S-2 into the preparation of Formula I-b. Step S-2 involves the preparation of a cesium intermediate, Formula I-a. […] As stated above, indazolium trans-[tetrachlorobis(1H-indazole)ruthenate (III)] is isolated by filtration as what can best be described as a mud-like substance. The stability of this compound is improved by the presence of hydrochloric acid (chloride ions). Washing the filtrate with polar solvents (e.g. methanol) also lead to degradation. Therefore, the best practice is to prepare the indazolium trans-[tetrachlorobis(1H-indazole)ruthenate (III)], isolate by filtration, and use directly for S-2 without delay. S-2 consists of mixing indazolium trans-[tetrachlorobis(1H-indazole)ruthenate (III)] and cesium chloride in a suitable solvent. Suitable solvents can be alcohol with 1 to 5 carbon atoms, a diol with 2-4 carbon atoms, water, ketones with […], cyclic ethers containing 4 to 7 carbon atoms, amides with 1 to 4 carbon atoms, DMSO, sulfolane, esters with 4 to 6 carbon atoms, chlorinated hydrocarbons with 1 or 2 carbon atoms, liquid aromatic hydrocarbons, nitriles with 2-6 carbon atoms, or mixture of thereof.

[2] = Solution stability study of IT-139 bulk solution (HPLC peak area over time); conditions: for % Peak Area Unspecified: impurities; for % Peak Area RRT 1.09 / % Peak Area RRT 1.28: impurity
Experimental: HPLC Method 1 Assay and identity of sodium trans-[tetrachlorobis(1H-indazole) ruthenate (III)] was determined by high pressure liquid chromatography with UV detection at 292 nm. IT-139 drug product was dissolved in water at concentration of 1 mg/mL, and 10 μL was injected onto an Agilent Zorbax SB-C18 (3 μm, 4.6×150 mm) HPLC column. Mobile phase A consisted of 0.1% trifluoroacetic acid in water and mobile phase B consisted of 0.1% trifluoroacetic acid in acetonitrile. Separation was achieved by gradient flow at 1.0 mL/minute such that mobile phase A constituting from 90% to 10% from time zero to 12 minutes, with mobile phase B constituting from 10% to 90% over 12 minutes. The gradient was then reversed from 10% mobile phase A and 90% mobile phase B to 90% A and 10% B from 12 minutes to 13 minutes. This continued until the end of the run at 15 minutes. The analyte retention time was 7.7 minutes. Sample temperature was maintained at 5° C., and column temperature was maintained at 25° C.
HPLC Method 2 Two HPLC methods are used because two different impurities co-elute using HPLC Method 1. Related substances for IT-139 drug product were determined by high pressure liquid chromatography with UV detection at 292 nm. IT-139 drug product was dissolved in water at concentration of 1 mg/mL, and 10 μL was injected onto an Agilent Zorbax SB-C18 (3 μm, 4.6×150 mm) HPLC column. Mobile phase A consisted of 0.1% trifluoroacetic acid in water and mobile phase B consisted of 0.1% trifluoroacetic acid in acetonitrile. Separation was achieved by gradient flow at 1.0 mL/minute such that mobile phase A constituted from 90% to 10% from time zero to 15 minutes, with mobile phase B constituted from 10% to 90% over 15 minutes. The gradient was held at 10% A and 90% B from 15 minutes to 19.9 minutes. The gradient was then reversed to 90% A and 10% B from 19.9 minutes to 20 minutes, and was held until the end of the run at 26 minutes. Sample temperature was maintained at 5° C., and column temperature was maintained at 25° C.
Compound from Example 5 was prepared at room temperature (20° C.) using room temperature solutions, and refrigerated (2-8° C.) using cold (2-8° C.) solutions, for a total volume of 500 mL for each. Citric acid solution was prepared by dissolving 19.2 grams of citric acid in 1 L of water. Sodium citrate solution was prepared by dissolving 29.4 grams of sodium citrate in 1 L of water. Sodium citrate solution was added to the citric acid solution until the pH was increased from 2.0 to 3.4. Mannitol solution was prepared by dissolving 13.3 g in 200 mL of water. Solutions of Formula I-b were prepared by adding 16.6 mL of citrate buffer to 400 mL water. 3.33 g sodium trans[tetrachlorobis(1H-indazole)ruthenate(III)] was added to the solution and stirred for 10 minutes. 50 mL of mannitol solution was added followed by 33.4 mL of water for a final volume of 500 mL IT-139 bulk solution. The room temperature (18-22° C.) sample was stirred using a magnetic stir plate on the laboratory bench, and the refrigerated sample was stirred using a magnetic stir plate in a refrigerator (2-8° C.). Aliquots of 100 μL were taken from each sample immediately upon dissolution (T=0) and at time points of 0.5, 1, 2, 3, 4, 5, 6, 18, 24, 32, and 48 hours. Each sample was added to 1.9 mL methanol in an HPLC vial and mixed by vortex. […] HPLC chromatograms for IT-139 samples stored refrigerated or at room temperature at the 18 hour time point are shown in FIG. 2 and FIG. 3, respectively.

[3] = Stability of Formula I-b in chloride-containing solutions versus pure water (aquation to Compound A); conditions: sodium chloride or hydrochloric acid solutions compared with pure water
[4] = 20° C. (room temperature), 0.5 h
[5] = 20° C. (room temperature), 18 h

## [Cl][Ru-3]([Cl])([Cl])([Cl])([n+]1cc2ccccc2[nH]1)[n+]1cc2ccccc2[nH]1.[Cs+] [Formula I-a, cesium trans-[tetrachlorobis(1H-indazole)ruthenate (III)]]
[1]
  stability of the dry powder: stable at ambient conditions

## [Cl][Ru-]([Cl])([Cl])[Cl].[Na+].c1ccc2[nH]ncc2c1.c1ccc2[nH]ncc2c1 [Formula I-b, sodium trans-[tetrachlorobis(1H-indazole)ruthenate (III)]]
[2]; 4° C. (refrigerated), 0 h
  % Peak Area RT 7.7 min: 97.05% and 97.1%
  % Peak Area Unspecified: <0.1%
  % Peak Area RRT 1.09: 0.96%
  % Peak Area RRT 1.28: 1.91%
[2]; 4° C. (refrigerated), 0.5 h
  % Peak Area RT 7.7 min: 97.3%
  % Peak Area Unspecified: <0.1%
  % Peak Area RRT 1.09: 0.96%
  % Peak Area RRT 1.28: 1.7%
[2]; 4° C. (refrigerated), 1 h
  % Peak Area RT 7.7 min: 97.0%
  % Peak Area Unspecified: <0.1%
  % Peak Area RRT 1.09: 1.03%
  % Peak Area RRT 1.28: 1.9%
[2]; 4° C. (refrigerated), 2 h
  % Peak Area RT 7.7 min: 97.0%
  % Peak Area Unspecified: 0.14%
  % Peak Area RRT 1.09: 1.04%
  % Peak Area RRT 1.28: 1.86%
[2]; 4° C. (refrigerated), 3 h
  % Peak Area RT 7.7 min: 96.8%
  % Peak Area Unspecified: 0.16%
  % Peak Area RRT 1.09: 1.07%
  % Peak Area RRT 1.28: 0.94%
[2]; 4° C. (refrigerated), 4 h
  % Peak Area RT 7.7 min: 96.5%
  % Peak Area Unspecified: 0.26%
  % Peak Area RRT 1.09: 1.13%
  % Peak Area RRT 1.28: 2.14%
[2]; 4° C. (refrigerated), 5 h
  % Peak Area RT 7.7 min: 96.6%
  % Peak Area Unspecified: <0.1%
  % Peak Area RRT 1.09: 1.11%
  % Peak Area RRT 1.28: 2.2%
[2]; 4° C. (refrigerated), 6 h
  % Peak Area RT 7.7 min: 96.8%
  % Peak Area Unspecified: <0.1%
  % Peak Area RRT 1.09: 1.09%
  % Peak Area RRT 1.28: 2.07%
[2]; 4° C. (refrigerated), 18 h
  % Peak Area RT 7.7 min: 95.4%
  % Peak Area Unspecified: 0.11%
  % Peak Area RRT 1.09: 1.45%
  % Peak Area RRT 1.28: 3.07%
[2]; 4° C. (refrigerated), 24 h
  % Peak Area RT 7.7 min: 94.8%
  % Peak Area Unspecified: <0.1%
  % Peak Area RRT 1.09: 1.34%
  % Peak Area RRT 1.28: 3.76%
[2]; 4° C. (refrigerated), 32 h
  % Peak Area RT 7.7 min: 94.9%
  % Peak Area Unspecified: <0.1%
  % Peak Area RRT 1.09: 1.33%
  % Peak Area RRT 1.28: 3.65%
[2]; 4° C. (refrigerated), 48 h
  % Peak Area RT 7.7 min: 89.8%
  % Peak Area Unspecified: <0.1%
  % Peak Area RRT 1.09: 2.39%
  % Peak Area RRT 1.28: 7.56%
[2]; 20° C. (room temperature), 0 h
  % Peak Area RT 7.7 min: 96.8%
  % Peak Area Unspecified: <0.1%
  % Peak Area RRT 1.09: 0.88%
  % Peak Area RRT 1.28: 2.26%
[2]; [4]
  % Peak Area RT 7.7 min: 96.8%
  % Peak Area Unspecified: <0.1%
  % Peak Area RRT 1.09: 1.08%
  % Peak Area RRT 1.28: 2.07%
[2]; 20° C. (room temperature), 1 h
  % Peak Area RT 7.7 min: 96.5%
  % Peak Area Unspecified: <0.1%
  % Peak Area RRT 1.09: 1.14%
  % Peak Area RRT 1.28: 2.28%
[2]; 20° C. (room temperature), 2 h
  % Peak Area RT 7.7 min: 96.3%
  % Peak Area Unspecified: 0.13%
  % Peak Area RRT 1.09: 1.22%
  % Peak Area RRT 1.28: 2.34%
[2]; 20° C. (room temperature), 3 h
  % Peak Area RT 7.7 min: 95.9%
  % Peak Area Unspecified: 0.16%
  % Peak Area RRT 1.09: 1.35%
  % Peak Area RRT 1.28: 2.55%
[2]; 20° C. (room temperature), 4 h
  % Peak Area RT 7.7 min: 95.4%
  % Peak Area Unspecified: 0.25%
  % Peak Area RRT 1.09: 1.47%
  % Peak Area RRT 1.28: 2.89%
[2]; 20° C. (room temperature), 5 h
  % Peak Area RT 7.7 min: 94.9%
  % Peak Area Unspecified: 0.26%
  % Peak Area RRT 1.09: 1.58%
  % Peak Area RRT 1.28: 3.27%
[2]; 20° C. (room temperature), 6 h
  % Peak Area RT 7.7 min: 94.0%
  % Peak Area Unspecified: 0.13%
  % Peak Area RRT 1.09: 1.88%
  % Peak Area RRT 1.28: 4%
[2]; [5]
  % Peak Area RT 7.7 min: 12.1%
  % Peak Area Unspecified: 1.82%
  % Peak Area RRT 1.09: 25.2%
  % Peak Area RRT 1.28: 60.87%
[3]
  stability in solution: much more stable
